Laboratory results published in article PMC3050028 (Neuron, 2011).

Target: T1, IR84a (Drosophila melanogaster, UniProt Q9VIA5)
T1 sequence (Q9VIA5 25-644): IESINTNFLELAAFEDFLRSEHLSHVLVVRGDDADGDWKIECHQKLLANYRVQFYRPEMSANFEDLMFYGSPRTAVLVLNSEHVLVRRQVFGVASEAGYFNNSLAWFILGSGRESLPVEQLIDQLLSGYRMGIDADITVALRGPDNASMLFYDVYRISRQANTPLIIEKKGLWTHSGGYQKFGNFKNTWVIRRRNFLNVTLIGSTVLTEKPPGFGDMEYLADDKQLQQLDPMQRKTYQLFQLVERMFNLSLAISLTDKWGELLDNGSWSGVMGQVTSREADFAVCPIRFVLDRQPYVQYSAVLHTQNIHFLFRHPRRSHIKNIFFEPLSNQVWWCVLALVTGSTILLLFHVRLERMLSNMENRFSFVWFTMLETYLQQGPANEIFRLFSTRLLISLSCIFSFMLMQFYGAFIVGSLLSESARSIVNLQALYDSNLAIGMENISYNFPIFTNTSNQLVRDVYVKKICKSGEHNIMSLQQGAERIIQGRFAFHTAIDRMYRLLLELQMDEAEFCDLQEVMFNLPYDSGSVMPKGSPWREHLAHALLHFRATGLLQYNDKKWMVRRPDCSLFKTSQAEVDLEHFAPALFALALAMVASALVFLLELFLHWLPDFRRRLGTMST
T1 sequence (Q9W365 18-936 partner): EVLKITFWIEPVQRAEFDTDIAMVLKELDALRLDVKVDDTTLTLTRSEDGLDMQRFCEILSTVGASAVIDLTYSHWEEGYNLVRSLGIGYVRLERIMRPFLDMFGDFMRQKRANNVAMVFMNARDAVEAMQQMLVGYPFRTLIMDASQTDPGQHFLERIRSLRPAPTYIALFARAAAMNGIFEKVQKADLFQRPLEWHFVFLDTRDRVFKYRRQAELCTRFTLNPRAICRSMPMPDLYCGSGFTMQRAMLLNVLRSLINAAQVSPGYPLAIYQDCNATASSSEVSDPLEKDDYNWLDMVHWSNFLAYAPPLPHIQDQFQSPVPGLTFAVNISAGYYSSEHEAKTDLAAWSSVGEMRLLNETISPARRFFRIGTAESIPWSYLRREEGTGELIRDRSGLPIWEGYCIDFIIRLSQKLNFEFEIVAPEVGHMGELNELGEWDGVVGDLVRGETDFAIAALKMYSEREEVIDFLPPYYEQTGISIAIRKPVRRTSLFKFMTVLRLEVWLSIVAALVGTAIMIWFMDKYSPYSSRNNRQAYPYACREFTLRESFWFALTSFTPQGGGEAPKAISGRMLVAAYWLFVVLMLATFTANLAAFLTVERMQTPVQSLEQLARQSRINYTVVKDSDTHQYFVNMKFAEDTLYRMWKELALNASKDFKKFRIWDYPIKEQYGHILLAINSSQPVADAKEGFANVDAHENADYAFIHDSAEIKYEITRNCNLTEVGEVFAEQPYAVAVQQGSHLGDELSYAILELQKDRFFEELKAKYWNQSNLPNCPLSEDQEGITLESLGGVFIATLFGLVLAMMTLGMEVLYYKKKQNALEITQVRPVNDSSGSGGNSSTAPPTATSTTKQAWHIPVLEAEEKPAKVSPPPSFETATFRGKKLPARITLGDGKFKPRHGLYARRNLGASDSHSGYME
Assay type: cell-based

Question: Which IC50 does the source give for `CC12CC3CC(C)(C1)CC(N)(C3)C2` [memantine] here?
Answer: 39 ± 9 µM
